Key:
[1] = target: T1, Tissue alpha-L-fucosidase (Bos taurus, UniProt Q2KIM0); test: Ki value against bovine alpha-L-fucosidase
T1 sequence (Q2KIM0 whole entry): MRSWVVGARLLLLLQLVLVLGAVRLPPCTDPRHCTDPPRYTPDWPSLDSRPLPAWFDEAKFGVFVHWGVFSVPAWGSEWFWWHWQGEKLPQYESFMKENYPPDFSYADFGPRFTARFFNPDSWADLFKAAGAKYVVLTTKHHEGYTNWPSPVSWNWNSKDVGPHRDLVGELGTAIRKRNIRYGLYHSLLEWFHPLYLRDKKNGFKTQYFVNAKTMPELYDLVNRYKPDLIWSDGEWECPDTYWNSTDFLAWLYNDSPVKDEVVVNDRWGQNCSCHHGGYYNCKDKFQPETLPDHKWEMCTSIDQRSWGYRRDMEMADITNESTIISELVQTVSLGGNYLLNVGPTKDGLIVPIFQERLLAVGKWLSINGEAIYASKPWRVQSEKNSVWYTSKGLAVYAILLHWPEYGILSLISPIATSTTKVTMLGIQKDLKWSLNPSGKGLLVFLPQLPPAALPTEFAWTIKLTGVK

[2] = target: T2, Beta-galactosidase (Bos taurus) (UniProt Q58D55); test: Percent inhibition of beta-galactosidase of bovine liver at 1000 uM
T2 sequence (whole entry): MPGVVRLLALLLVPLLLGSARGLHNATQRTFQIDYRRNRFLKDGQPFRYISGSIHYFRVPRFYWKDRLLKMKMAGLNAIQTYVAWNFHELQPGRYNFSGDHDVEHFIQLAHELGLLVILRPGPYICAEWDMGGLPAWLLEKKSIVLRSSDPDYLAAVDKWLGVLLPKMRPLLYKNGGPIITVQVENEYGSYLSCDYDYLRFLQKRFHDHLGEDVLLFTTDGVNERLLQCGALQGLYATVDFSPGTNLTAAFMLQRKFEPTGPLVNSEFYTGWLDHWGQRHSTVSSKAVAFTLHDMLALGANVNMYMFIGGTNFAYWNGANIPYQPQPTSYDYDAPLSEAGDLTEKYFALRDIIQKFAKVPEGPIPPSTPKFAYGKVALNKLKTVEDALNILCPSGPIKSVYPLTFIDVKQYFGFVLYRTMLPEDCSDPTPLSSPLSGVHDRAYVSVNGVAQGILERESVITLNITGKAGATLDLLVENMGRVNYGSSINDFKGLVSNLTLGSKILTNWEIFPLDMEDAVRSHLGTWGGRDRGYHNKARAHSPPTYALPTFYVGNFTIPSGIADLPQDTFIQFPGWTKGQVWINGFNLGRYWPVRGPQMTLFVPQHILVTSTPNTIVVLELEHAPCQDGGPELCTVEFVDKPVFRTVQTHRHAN

[3] = target: T3, Beta-mannosidase (Rattus norvegicus) (UniProt Q4FZV0); test: Percent inhibition of beta-mannosidase of rat epididymis at 1000 uM
T3 sequence (whole entry): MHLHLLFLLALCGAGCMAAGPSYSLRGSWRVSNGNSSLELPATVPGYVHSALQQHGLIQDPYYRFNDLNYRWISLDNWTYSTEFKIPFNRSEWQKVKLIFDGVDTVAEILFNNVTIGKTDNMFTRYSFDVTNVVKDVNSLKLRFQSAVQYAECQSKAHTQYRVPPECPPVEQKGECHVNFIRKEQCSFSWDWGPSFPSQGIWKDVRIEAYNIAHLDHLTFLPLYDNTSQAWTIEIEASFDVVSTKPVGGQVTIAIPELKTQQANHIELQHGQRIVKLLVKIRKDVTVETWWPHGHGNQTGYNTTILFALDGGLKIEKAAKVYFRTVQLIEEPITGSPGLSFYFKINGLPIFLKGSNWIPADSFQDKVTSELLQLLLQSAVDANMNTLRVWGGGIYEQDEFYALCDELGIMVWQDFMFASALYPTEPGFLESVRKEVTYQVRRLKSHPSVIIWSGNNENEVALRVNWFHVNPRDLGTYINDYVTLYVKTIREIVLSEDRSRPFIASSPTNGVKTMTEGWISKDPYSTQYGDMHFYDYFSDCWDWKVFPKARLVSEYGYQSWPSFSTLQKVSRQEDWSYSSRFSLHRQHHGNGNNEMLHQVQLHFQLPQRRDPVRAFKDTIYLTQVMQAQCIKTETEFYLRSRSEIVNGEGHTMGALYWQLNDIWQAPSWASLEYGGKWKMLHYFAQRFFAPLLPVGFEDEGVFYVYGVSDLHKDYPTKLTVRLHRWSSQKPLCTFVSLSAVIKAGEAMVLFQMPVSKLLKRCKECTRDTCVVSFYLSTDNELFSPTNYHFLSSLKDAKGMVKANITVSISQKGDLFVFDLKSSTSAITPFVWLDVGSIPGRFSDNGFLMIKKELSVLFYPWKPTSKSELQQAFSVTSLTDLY

[4] = target: T4, Beta-galactosidase (Rattus norvegicus) (UniProt D3ZUM4); test: Percent inhibition of beta-galactosidase of rat epididymis at 1000 uM
T4 sequence (whole entry): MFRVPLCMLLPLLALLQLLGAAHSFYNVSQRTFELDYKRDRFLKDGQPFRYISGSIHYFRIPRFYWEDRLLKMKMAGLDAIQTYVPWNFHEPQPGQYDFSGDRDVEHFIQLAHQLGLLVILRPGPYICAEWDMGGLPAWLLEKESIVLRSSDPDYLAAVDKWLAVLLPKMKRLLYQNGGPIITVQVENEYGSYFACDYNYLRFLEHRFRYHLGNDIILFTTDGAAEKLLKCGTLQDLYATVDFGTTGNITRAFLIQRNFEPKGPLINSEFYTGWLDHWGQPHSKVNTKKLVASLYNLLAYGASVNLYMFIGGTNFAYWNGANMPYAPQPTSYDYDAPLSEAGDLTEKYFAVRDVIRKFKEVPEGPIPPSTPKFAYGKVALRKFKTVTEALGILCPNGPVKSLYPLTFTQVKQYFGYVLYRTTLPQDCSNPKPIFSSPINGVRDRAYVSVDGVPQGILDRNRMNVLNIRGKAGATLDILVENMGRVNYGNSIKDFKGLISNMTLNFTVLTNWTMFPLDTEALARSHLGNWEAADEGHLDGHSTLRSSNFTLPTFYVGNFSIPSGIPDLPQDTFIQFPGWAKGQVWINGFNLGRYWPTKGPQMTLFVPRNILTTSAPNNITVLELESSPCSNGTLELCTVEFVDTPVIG

[5] = target: T5, Alpha-galactosidase C (Aspergillus niger) (UniProt Q9UUZ4); test: Percent inhibition of alpha-galactosidase of Aspergillus niger at 1000 uM
T5 sequence (whole entry): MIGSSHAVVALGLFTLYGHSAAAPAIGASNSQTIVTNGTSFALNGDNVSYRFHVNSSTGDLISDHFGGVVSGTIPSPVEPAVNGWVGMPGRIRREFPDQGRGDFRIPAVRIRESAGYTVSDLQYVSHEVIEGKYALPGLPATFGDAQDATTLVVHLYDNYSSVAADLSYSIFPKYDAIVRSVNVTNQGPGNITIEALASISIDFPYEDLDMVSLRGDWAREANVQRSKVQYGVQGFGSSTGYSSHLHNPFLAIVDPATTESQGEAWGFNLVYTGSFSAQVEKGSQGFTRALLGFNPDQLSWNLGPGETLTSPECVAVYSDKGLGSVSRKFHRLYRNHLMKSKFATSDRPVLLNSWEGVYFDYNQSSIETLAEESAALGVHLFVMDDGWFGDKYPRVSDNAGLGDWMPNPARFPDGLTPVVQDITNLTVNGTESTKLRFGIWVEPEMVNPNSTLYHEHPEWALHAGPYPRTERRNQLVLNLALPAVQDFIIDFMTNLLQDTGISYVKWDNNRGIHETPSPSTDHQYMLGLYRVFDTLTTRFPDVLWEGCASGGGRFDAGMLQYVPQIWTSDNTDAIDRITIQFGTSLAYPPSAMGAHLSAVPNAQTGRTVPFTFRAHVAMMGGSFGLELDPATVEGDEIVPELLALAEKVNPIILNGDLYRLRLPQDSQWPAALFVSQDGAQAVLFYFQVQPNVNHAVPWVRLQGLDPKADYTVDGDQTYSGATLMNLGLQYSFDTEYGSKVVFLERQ

[6] = target: Sucrase-isomaltase, intestinal (Rattus norvegicus) (UniProt P23739); conditions: 1000 uM
Sucrase-isomaltase, intestinal (Rattus norvegicus), sequence (P23739 1-1013 limits assumed): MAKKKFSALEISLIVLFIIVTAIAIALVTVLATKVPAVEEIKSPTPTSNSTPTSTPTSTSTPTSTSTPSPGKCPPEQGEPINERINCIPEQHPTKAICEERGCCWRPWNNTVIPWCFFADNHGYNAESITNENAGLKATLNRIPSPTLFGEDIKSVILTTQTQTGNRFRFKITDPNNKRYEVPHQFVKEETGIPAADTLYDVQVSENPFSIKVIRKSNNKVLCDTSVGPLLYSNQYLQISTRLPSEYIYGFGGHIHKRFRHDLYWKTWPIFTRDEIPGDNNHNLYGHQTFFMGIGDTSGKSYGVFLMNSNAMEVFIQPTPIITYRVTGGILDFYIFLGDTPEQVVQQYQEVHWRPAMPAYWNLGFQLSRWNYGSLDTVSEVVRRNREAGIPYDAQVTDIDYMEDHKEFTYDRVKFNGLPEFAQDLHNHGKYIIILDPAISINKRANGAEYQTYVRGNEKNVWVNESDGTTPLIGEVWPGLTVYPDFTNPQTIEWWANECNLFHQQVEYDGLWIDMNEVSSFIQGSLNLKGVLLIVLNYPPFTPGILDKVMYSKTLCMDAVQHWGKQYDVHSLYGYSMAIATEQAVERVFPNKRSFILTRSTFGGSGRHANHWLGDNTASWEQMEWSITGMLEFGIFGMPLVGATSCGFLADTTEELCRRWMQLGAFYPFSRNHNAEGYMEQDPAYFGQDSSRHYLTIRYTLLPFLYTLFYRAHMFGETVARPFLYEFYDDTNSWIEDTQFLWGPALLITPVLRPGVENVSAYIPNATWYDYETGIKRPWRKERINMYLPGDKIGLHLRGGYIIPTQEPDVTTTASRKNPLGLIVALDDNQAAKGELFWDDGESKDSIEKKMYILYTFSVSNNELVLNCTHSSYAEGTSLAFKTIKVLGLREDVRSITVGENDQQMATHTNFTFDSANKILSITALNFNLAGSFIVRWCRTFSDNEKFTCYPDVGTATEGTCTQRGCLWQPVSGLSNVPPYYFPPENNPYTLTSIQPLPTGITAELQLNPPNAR
Sucrase-isomaltase, intestinal (Rattus norvegicus), sequence (P23739 1014-1841 limits assumed): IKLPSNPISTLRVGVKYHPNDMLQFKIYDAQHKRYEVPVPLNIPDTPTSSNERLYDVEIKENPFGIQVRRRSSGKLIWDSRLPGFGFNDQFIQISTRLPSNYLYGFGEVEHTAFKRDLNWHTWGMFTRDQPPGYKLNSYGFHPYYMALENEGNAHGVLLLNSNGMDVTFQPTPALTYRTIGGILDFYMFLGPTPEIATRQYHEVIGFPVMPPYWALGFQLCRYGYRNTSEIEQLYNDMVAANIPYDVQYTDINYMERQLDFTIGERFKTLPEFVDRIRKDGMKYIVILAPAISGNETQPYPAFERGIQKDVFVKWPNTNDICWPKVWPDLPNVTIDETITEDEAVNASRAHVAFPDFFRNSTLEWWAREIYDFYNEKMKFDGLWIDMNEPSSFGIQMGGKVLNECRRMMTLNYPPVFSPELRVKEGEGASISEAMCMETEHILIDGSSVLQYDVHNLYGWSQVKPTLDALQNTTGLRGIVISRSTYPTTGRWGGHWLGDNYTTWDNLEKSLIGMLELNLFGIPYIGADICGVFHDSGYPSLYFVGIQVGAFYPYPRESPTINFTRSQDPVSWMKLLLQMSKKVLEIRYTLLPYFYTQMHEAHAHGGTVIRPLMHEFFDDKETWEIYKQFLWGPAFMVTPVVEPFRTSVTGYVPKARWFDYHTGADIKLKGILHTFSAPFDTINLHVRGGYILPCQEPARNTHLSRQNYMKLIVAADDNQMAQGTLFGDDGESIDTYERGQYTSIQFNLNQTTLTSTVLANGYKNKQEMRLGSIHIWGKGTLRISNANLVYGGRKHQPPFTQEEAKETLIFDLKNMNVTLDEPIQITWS

[7] = target: Alpha-galactosidase (Coffea arabica) (UniProt Q5DUH8); conditions: 1000 uM
Alpha-galactosidase (Coffea arabica), sequence (Q5DUH8 as listed by the source): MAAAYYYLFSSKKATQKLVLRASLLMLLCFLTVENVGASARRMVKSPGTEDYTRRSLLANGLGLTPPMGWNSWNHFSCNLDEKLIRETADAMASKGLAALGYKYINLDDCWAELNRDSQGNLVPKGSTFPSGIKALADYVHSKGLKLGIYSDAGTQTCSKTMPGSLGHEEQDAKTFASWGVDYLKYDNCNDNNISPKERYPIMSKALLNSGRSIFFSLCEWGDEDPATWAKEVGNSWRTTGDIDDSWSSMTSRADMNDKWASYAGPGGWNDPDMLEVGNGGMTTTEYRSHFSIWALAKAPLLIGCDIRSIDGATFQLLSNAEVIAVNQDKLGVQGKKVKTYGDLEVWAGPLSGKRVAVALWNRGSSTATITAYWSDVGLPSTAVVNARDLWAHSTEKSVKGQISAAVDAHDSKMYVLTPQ

[8] = target: T6, Tissue alpha-L-fucosidase (Bos taurus) (UniProt Q2KIM0); conditions: 1000 uM
T6 sequence (whole entry): T1 sequence (Q2KIM0 whole entry)

Ki [1] [nM] | inhibition [2] [%] | inhibition [3] [%] | inhibition [4] [%] | inhibition [5] [%] | inhibition [6] [%] | inhibition [7] [%] | inhibition [8] [%] | Structure (SMILES)
1.7 |  |  |  |  |  |  |  | C[C@@H]1NC[C@@H](O)[C@H](O)[C@@H]1O [DEOXYFUCONOJIRIMYCIN]
 | < 50 | < 50 | < 50 | < 50 | < 50 | < 50 | < 50 | OC[C@@H]1NC[C@H](O)[C@@H](O)[C@H]1O
 | < 50 |  | < 50 | < 50 | < 50 | < 50 |  | OC[C@H]1NC[C@@H](O)[C@H](O)[C@@H]1O
